According to patent US11179469B2, “Transdermal absorption preparation” (Nitto Denko Corporation, priority 2017, dated 2021):

Assay: Octanol/water partition coefficient of the drug (log P1)
Type: physicochemical
Details: base 10 logarithm
Text: The octanol/water partition coefficient is the ratio of the distribution of a certain chemical substance respectively to n-octanol and water (ratio of the concentration in n-octanol phase and aqueous phase). It is used as an index showing hydrophobicity and transferability of the chemical substance, and can be measured by the flask shaking method prescribed in the Economic Development Cooperation Organization (OECD) Test Guideline 107 and the like or calculated using the calculation software (“Cache Workspace (registered trade mark)” manufactured by Fujitsu Limited) etc. and inputting the structural formula of the compound. The octanol/water partition coefficient of the polymer is calculated using the molecule structural formula in a monomer unit.

CC(C)(C)NCC(O)c1ccccc1Cl (centres unmarked) [Tulobuterol]
logP1 (octanol/water partition coefficient of the drug): 2.55

CC(C)C[C@H](CN)CC(=O)O [pregabalin]
logP1 (octanol/water partition coefficient of the drug): 0.89
